# Paper PMC8296573, “Synthesis and Biological Evaluation of Fingolimod Derivatives as Antibacterial Agents” (ACS Omega, 2021)
# Read-outs that look alike come from different tables or passages of the source.
# Assays:
# S. aureus ATCC 25923 [1] = assay: Antibacterial activity, post-exposure on preformed 18-h-old biofilms; format: cell-based, Staphylococcus aureus; conditions: ± SD; for inhibition at 25 µM / inhibition at 50 µM / inhibition at 100 µM / inhibition at 200 µM: Staphylococcus aureus; for inhibition at 25 µM: ATCC25923, 25 µM; for inhibition at 50 µM: ATCC25923, 50 µM; for inhibition at 100 µM: ATCC25923, 100 µM; for inhibition at 200 µM: ATCC25923, 200 µM
# Outline: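 Compounds were applied to preformed 18-h biofilms after medium change and left 24 h. Read-outs: planktonic OD plus resazurin fluorescence (20 μM), biofilm metabolic activity by resazurin 30 min at 37 °C, then biomass by crystal violet absorbance at 595 nm after ethanol fixation.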
# S. aureus ATCC 25923 [2] = assay: Antibacterial activity, pre-exposure (planktonic cells and biofilm formation); format: cell-based, Staphylococcus aureus; conditions: for MIC / inhibition at 5 µM / inhibition at 10 µM / inhibition at 15 µM / inhibition at 25 µM: Staphylococcus aureus, ATCC25923; for inhibition at 5 µM / inhibition at 10 µM / inhibition at 15 µM / inhibition at 25 µM / Average inhibition %, biofilms viability / Average inhibition %, planktonic cells viability: pre-exposure, ± SD
# Outline: (§1)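 Bacteria and compound were co-incubated from the start for 18 h at 37 °C, 220 rpm. Planktonic cells scored by turbidity plus resazurin reduction; washed biofilms scored by 20 μM resazurin (30, 60, 90 min for S. aureus, A. baumannii, P. aeruginosa) and ethanol-fixed crystal violet staining.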
# P. aeruginosa ATCC 9027 = assay: Antibacterial activity, pre-exposure; format: cell-based, Pseudomonas aeruginosa; conditions: for Average inhibition %, biofilms viability / Average inhibition %, planktonic cells viability / inhibition at 50 µM / inhibition at 100 µM / inhibition at 150 µM / inhibition at 200 µM: P. aeruginosa ATCC 9027, pre-exposure, ± SD; for inhibition at 50 µM / inhibition at 100 µM / inhibition at 150 µM / inhibition at 200 µM: Pseudomonas aeruginosa, ATCC9027
# Outline: as §1
# A. baumannii NCTC 13423 = assay: Antibacterial activity, pre-exposure; format: cell-based, Acinetobacter baumannii; conditions: for Average inhibition %, biofilms viability / Average inhibition %, planktonic cells viability / inhibition at 10 µM / inhibition at 15 µM / inhibition at 25 µM / inhibition at 50 µM: A. baumannii NCTC 13423, pre-exposure, ± SD; for inhibition at 10 µM / inhibition at 15 µM / inhibition at 25 µM / inhibition at 50 µM / MIC: Acinetobacter baumannii, NCTC13423
# Outline: as §1
# [3] = read-out: Average inhibition %, biofilms biomass
# [4] = read-out: Average inhibition %, planktonic cells turbidity
# [5] = 10 µM, read-out: Average inhibition %, biofilms biomass
# [6] = 10 µM, read-out: Average inhibition %, planktonic cells turbidity
# [7] = 15 µM, read-out: Average inhibition %, biofilms biomass
# [8] = 15 µM, read-out: Average inhibition %, planktonic cells turbidity
# [9] = 25 µM, read-out: Average inhibition %, biofilms biomass
# [10] = 25 µM, read-out: Average inhibition %, planktonic cells turbidity
# [11] = 50 µM, read-out: Average inhibition %, biofilms biomass
# [12] = 50 µM, read-out: Average inhibition %, planktonic cells turbidity
smiles,measurement,setting,value
"CCCCCCCCCCc1ccc2nc(CC(N)(CO)CO)ccc2c1 [Compound 83, 2-Amino-2-[(6-decylquinolin-2-yl)methyl]propane-1,3-diol]","Average inhibition %, biofilms viability",S. aureus ATCC 25923 [1]; 25 µM,16.8 ± 17.2%
same,"Average inhibition %, planktonic cells viability",S. aureus ATCC 25923 [1]; 25 µM,14.1 ± 20.9%
same,"Average inhibition %, biofilms viability",S. aureus ATCC 25923 [1]; 50 µM,34.4 ± 15.3%
same,"Average inhibition %, planktonic cells viability",S. aureus ATCC 25923 [1]; 50 µM,22.7 ± 19.5%
same,"Average inhibition %, biofilms viability",S. aureus ATCC 25923 [1]; 100 µM,56.6 ± 18.2%
same,"Average inhibition %, planktonic cells viability",S. aureus ATCC 25923 [1]; 100 µM,80.3 ± 17.9%
same,"Average inhibition %, biofilms viability",S. aureus ATCC 25923 [1]; 200 µM,58.6 ± 19.5%
same,"Average inhibition %, planktonic cells viability",S. aureus ATCC 25923 [1]; 200 µM,88.3 ± 12.1%
same,inhibition at 25 µM,S. aureus ATCC 25923 [1]; [3],31.7 ± 20.9%
same,inhibition at 25 µM,S. aureus ATCC 25923 [1]; [4],27.1 ± 19.8%
same,inhibition at 50 µM,S. aureus ATCC 25923 [1]; [3],50.3 ± 6.4%
same,inhibition at 50 µM,S. aureus ATCC 25923 [1]; [4],28.3 ± 13.2%
same,inhibition at 100 µM,S. aureus ATCC 25923 [1]; [3],71.3 ± 10.2%
same,inhibition at 100 µM,S. aureus ATCC 25923 [1]; [4],64.4 ± 14%
same,inhibition at 200 µM,S. aureus ATCC 25923 [1]; [3],71.5 ± 5.8%
same,inhibition at 200 µM,S. aureus ATCC 25923 [1]; [4],65.3 ± 5.8%
same,MIC,"S. aureus ATCC 25923 [2]; lowest concentration with no visible growth (>90% inhibition of turbidity and viability of planktonic cells), 18 h, read-out: MIC S. aureus ATCC 25923",10 µM
same,inhibition at 5 µM,"S. aureus ATCC 25923 [2]; 5 µM, read-out: Average inhibition %, biofilms biomass",37.3 ± 7.9%
same,inhibition at 5 µM,"S. aureus ATCC 25923 [2]; 5 µM, read-out: Average inhibition %, planktonic cells turbidity",37.9 ± 5.1%
same,inhibition at 10 µM,S. aureus ATCC 25923 [2]; [5],97.3 ± 0.8%
same,inhibition at 10 µM,S. aureus ATCC 25923 [2]; [6],99.5 ± 0.2%
same,inhibition at 15 µM,S. aureus ATCC 25923 [2]; [7],93.9 ± 1.4%
same,inhibition at 15 µM,S. aureus ATCC 25923 [2]; [8],99.4 ± 0.1%
same,inhibition at 25 µM,S. aureus ATCC 25923 [2]; [9],89.4 ± 1.4%
same,inhibition at 25 µM,S. aureus ATCC 25923 [2]; [10],99 ± 0.2%
same,MIC,S. aureus ATCC 25923 [2]; read-out: MIC (S. aureus),10 µM
same,"Average inhibition %, biofilms viability",S. aureus ATCC 25923 [2]; 5 µM,34.6 ± 5.8%
same,"Average inhibition %, planktonic cells viability",S. aureus ATCC 25923 [2]; 5 µM,6.9 ± 10.7%
same,"Average inhibition %, biofilms viability",S. aureus ATCC 25923 [2]; 10 µM,99.6 ± 0.4%
same,"Average inhibition %, planktonic cells viability",S. aureus ATCC 25923 [2]; 10 µM,99.6 ± 0%
same,"Average inhibition %, biofilms viability",S. aureus ATCC 25923 [2]; 15 µM,99.8 ± 0.6%
same,"Average inhibition %, planktonic cells viability",S. aureus ATCC 25923 [2]; 15 µM,99.6 ± 0%
same,"Average inhibition %, biofilms viability",S. aureus ATCC 25923 [2]; 25 µM,99.6 ± 0.4%
same,"Average inhibition %, planktonic cells viability",S. aureus ATCC 25923 [2]; 25 µM,99.7 ± 0%
same,"Average inhibition %, biofilms viability",P. aeruginosa ATCC 9027; 50 µM,12.2 ± 21.1%
same,"Average inhibition %, planktonic cells viability",P. aeruginosa ATCC 9027; 50 µM,10.5 ± 6.5%
same,"Average inhibition %, biofilms viability",P. aeruginosa ATCC 9027; 100 µM,0.5 ± 0.9%
same,"Average inhibition %, planktonic cells viability",P. aeruginosa ATCC 9027; 100 µM,14.8 ± 0.4%
same,"Average inhibition %, biofilms viability",P. aeruginosa ATCC 9027; 150 µM,2.6 ± 3.8%
same,"Average inhibition %, planktonic cells viability",P. aeruginosa ATCC 9027; 150 µM,20.2 ± 15%
same,"Average inhibition %, biofilms viability",P. aeruginosa ATCC 9027; 200 µM,1.1 ± 1%
same,"Average inhibition %, planktonic cells viability",P. aeruginosa ATCC 9027; 200 µM,16.3 ± 15.7%
same,inhibition at 50 µM,P. aeruginosa ATCC 9027; [11],6.4 ± 11.1%
same,inhibition at 50 µM,P. aeruginosa ATCC 9027; [12],35.2 ± 3%
same,inhibition at 100 µM,"P. aeruginosa ATCC 9027; 100 µM, read-out: Average inhibition %, biofilms biomass",2.1 ± 2.3%
same,inhibition at 100 µM,"P. aeruginosa ATCC 9027; 100 µM, read-out: Average inhibition %, planktonic cells turbidity",38.6 ± 10.1%
same,inhibition at 150 µM,"P. aeruginosa ATCC 9027; 150 µM, read-out: Average inhibition %, biofilms biomass",1.3 ± 2.3%
same,inhibition at 150 µM,"P. aeruginosa ATCC 9027; 150 µM, read-out: Average inhibition %, planktonic cells turbidity",34.8 ± 16.4%
same,inhibition at 200 µM,"P. aeruginosa ATCC 9027; 200 µM, read-out: Average inhibition %, biofilms biomass",3.7 ± 4.7%
same,inhibition at 200 µM,"P. aeruginosa ATCC 9027; 200 µM, read-out: Average inhibition %, planktonic cells turbidity",33.2 ± 7.3%
same,MIC P. aeruginosa ATCC 9027,"P. aeruginosa ATCC 9027; pre-exposure, Inactive = no activity up to 200 μM, > = some inhibition but no MIC reached",Inactive
same,"Average inhibition %, biofilms viability",A. baumannii NCTC 13423; 10 µM,0.7 ± 1.2%
same,"Average inhibition %, planktonic cells viability",A. baumannii NCTC 13423; 10 µM,8 ± 5.8%
same,"Average inhibition %, biofilms viability",A. baumannii NCTC 13423; 15 µM,1.2 ± 2.2%
same,"Average inhibition %, planktonic cells viability",A. baumannii NCTC 13423; 15 µM,7.2 ± 6.6%
same,"Average inhibition %, biofilms viability",A. baumannii NCTC 13423; 25 µM,5.6 ± 6.6%
same,"Average inhibition %, planktonic cells viability",A. baumannii NCTC 13423; 25 µM,3.1 ± 3.1%
same,"Average inhibition %, biofilms viability",A. baumannii NCTC 13423; 50 µM,68.9 ± 2.6%
same,"Average inhibition %, planktonic cells viability",A. baumannii NCTC 13423; 50 µM,95.2 ± 1.7%
same,inhibition at 10 µM,A. baumannii NCTC 13423; [5],6.4 ± 9.4%
same,inhibition at 10 µM,A. baumannii NCTC 13423; [6],0%
same,inhibition at 15 µM,A. baumannii NCTC 13423; [7],0%
same,inhibition at 15 µM,A. baumannii NCTC 13423; [8],0%
same,inhibition at 25 µM,A. baumannii NCTC 13423; [9],0%
same,inhibition at 25 µM,A. baumannii NCTC 13423; [10],11.8 ± 12.4%
same,inhibition at 50 µM,A. baumannii NCTC 13423; [11],10.4 ± 10.2%
same,inhibition at 50 µM,A. baumannii NCTC 13423; [12],88.3 ± 1.5%
same,MIC,"A. baumannii NCTC 13423; pre-exposure, Inactive = no activity up to 50 μM, > = some inhibition but no MIC reached, read-out: MIC A. baumannii NCTC 13423",> 50 µM
same,MIC,"A. baumannii NCTC 13423; supplementary molecular formula strings sheet, read-out: MIC (A. baumannii)",> 50 µM
